Results as given in patent US10596092B2, “Deodorant composition and a method for preparing thereof” (priority 2017, dated 2020).

Assay: Neutralization of odoriferous acid by GC-FID
Assay type: physicochemical
Protocol: Hexamine, which is weakly basic in nature, was incubated with two commonly known odoriferous acids, i.e., 3-hydroxy-3-methyl-hexanoic acid (HMHA) and hexanoic acid, and the potential neutralization effect was studied by using a Gas Chromatograph with a Flame Ionization Detector (GC-FID). The chromatograms showing the neutralization of 3-hydroxy-3-methyl-hexanoic acid (HMHA) by sodium hydroxide and hexamine; and the neutralization of hexanoic acid by hexamine are shown in FIGS. 1 and 2, respectively.

SMILES: C1N2CN3CN1CN(C2)C3 [hexamine]
- neutralization of odoriferous acid (FIG. 1): capable of neutralizing the tested odoriferous acids
- neutralization of odoriferous acid (FIG. 2): capable of neutralizing the tested odoriferous acids
